Experimental data reported in ChEMBL document CHEMBL1201862, “PubChem BioAssay data set” (2004).
Activity calls are given as the source filed them.

Legend:
[1] = target: T1, Type-1 angiotensin II receptor (Homo sapiens, UniProt P30556); assay: AT1 receptor antagonists, dose response, selectivity assay for APJ receptor antagonist project, cell-based, uHTS hits (AID 463214); format: functional;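 also: antagonist potency against angiotensin II stimulated AT1 response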
T1 sequence (P30556 whole entry): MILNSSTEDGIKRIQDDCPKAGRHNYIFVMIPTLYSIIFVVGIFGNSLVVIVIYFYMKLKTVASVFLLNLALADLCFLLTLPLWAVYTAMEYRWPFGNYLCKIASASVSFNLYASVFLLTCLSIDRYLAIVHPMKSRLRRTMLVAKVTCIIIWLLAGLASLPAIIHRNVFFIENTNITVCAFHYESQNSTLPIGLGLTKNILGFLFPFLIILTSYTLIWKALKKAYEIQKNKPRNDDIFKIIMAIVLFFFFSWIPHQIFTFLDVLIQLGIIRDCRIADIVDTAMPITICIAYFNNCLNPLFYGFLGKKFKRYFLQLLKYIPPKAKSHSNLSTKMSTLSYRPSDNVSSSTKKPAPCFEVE

[2] = target: Beta-galactosidase (Escherichia coli, UniProt Q8VNN2); assay: PubChem AID 485352; format: functional
[3] = target: T2, Sentrin-specific protease 8 (Homo sapiens, UniProt Q96LD8); format: functional
T2 sequence (Q96LD8 whole entry): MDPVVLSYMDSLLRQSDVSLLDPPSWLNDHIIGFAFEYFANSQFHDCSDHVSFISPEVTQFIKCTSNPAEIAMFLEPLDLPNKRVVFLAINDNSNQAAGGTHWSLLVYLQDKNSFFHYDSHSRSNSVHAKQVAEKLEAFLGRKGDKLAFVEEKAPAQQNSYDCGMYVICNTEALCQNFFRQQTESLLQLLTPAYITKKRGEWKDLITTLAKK

[4] = target: T3, Replicative DNA helicase DnaB (Mycobacterium tuberculosis, UniProt P9WMR3); assay: DnaB intein splicing inhibitors, dose response, biochemical, cell-free fluorescence (AID 449749); format: functional
T3 sequence (P9WMR3 whole entry): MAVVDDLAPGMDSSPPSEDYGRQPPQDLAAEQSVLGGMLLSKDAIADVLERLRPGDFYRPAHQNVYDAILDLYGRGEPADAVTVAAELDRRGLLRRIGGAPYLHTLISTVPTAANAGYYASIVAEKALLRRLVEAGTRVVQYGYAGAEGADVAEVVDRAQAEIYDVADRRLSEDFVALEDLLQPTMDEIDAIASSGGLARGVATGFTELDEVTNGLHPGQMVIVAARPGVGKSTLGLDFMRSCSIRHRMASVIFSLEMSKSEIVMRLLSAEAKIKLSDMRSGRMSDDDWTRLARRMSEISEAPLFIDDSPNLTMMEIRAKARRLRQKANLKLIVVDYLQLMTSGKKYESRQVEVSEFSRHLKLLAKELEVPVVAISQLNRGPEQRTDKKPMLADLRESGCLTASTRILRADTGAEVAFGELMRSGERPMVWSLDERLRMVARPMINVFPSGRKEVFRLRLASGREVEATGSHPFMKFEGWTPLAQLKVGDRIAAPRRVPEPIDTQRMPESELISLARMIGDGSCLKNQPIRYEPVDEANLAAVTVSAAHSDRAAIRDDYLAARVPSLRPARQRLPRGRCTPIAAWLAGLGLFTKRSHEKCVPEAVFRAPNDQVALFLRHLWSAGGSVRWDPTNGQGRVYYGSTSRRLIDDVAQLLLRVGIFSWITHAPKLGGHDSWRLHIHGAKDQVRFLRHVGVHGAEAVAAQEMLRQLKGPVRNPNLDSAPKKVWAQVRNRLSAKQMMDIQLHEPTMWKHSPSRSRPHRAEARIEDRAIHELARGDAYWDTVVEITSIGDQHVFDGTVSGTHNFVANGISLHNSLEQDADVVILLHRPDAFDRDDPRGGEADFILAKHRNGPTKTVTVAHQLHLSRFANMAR

[5] = target: T4, Protein RecA (Mycobacterium tuberculosis, UniProt P9WHJ3); assay: Fluorescence Cell-Free Homogeneous Dose Retest to Identify Inhibitors of RecA-Intein Splicing Activity. [Related pubchem assays (depositor defined):AID2097, AID2223, AID489010, AID492950]; format: functional
T4 sequence (P9WHJ3 whole entry): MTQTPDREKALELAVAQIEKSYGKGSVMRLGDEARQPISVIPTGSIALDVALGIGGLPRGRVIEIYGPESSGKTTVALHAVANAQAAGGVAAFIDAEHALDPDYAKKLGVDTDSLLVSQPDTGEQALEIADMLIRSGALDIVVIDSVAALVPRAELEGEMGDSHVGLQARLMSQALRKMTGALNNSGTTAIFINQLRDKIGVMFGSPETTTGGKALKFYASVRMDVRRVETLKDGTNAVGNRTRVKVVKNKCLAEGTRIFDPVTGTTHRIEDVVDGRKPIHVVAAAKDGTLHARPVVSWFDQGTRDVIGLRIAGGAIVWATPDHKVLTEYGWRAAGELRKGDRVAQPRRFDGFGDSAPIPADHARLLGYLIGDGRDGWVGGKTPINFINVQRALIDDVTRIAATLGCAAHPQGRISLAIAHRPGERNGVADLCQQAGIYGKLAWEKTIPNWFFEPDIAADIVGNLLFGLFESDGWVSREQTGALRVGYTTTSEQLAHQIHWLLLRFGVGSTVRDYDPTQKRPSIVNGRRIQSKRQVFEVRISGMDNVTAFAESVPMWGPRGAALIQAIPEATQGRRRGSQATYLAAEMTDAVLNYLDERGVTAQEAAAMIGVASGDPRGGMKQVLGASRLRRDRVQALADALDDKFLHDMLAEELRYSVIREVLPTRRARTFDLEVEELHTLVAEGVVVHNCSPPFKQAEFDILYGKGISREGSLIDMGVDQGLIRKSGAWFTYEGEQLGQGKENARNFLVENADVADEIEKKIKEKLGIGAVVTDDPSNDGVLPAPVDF

[6] = target: T2, Sentrin-specific protease 8; format: functional; remark: listed apart in the source
[7] = target: Cytochrome P450 2C9 (Homo sapiens, UniProt P11712)
[8] = target: Cytochrome P450 2D6 (Homo sapiens, UniProt P10635);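 also: CYP2D6 member of a cytochrome P450 panel assay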
[9] = ADAM10 protease inhibitors, dose response, selectivity assay for ADAM17 exosite inhibitor project, biochemical, FRET peptide substrate, recombinant human ADAM10 (AID 743259);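 also: ADAM10 enzyme cleaving a FRET peptide substrate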
[10] = target: Disintegrin and metalloproteinase domain-containing protein 17 (Homo sapiens, UniProt P78536); assay: exosite inhibitors of ADAM17, dose response, biochemical (AID 743260)
[11] = inhibitors of intracellular T. cruzi replication, confirmation, NIH3T3 host cells, beta-gal luminescence (AID 2044); format: functional, cell-based;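 also: intracellular parasites grown in NIH/3T3 mouse fibroblasts as host cells; luminescent beta-galactosidase reporter signal from transgenic T. cruzi replicating inside host cells; inhibitors lower the luminescence signal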
[12] = microbe, parasite or virus in culture; format: functional; settings: Mycobacterium tuberculosis
[13] = target: T5, Apoptotic protease-activating factor 1 (Homo sapiens, UniProt O14727); format: functional
T5 sequence (O14727 whole entry): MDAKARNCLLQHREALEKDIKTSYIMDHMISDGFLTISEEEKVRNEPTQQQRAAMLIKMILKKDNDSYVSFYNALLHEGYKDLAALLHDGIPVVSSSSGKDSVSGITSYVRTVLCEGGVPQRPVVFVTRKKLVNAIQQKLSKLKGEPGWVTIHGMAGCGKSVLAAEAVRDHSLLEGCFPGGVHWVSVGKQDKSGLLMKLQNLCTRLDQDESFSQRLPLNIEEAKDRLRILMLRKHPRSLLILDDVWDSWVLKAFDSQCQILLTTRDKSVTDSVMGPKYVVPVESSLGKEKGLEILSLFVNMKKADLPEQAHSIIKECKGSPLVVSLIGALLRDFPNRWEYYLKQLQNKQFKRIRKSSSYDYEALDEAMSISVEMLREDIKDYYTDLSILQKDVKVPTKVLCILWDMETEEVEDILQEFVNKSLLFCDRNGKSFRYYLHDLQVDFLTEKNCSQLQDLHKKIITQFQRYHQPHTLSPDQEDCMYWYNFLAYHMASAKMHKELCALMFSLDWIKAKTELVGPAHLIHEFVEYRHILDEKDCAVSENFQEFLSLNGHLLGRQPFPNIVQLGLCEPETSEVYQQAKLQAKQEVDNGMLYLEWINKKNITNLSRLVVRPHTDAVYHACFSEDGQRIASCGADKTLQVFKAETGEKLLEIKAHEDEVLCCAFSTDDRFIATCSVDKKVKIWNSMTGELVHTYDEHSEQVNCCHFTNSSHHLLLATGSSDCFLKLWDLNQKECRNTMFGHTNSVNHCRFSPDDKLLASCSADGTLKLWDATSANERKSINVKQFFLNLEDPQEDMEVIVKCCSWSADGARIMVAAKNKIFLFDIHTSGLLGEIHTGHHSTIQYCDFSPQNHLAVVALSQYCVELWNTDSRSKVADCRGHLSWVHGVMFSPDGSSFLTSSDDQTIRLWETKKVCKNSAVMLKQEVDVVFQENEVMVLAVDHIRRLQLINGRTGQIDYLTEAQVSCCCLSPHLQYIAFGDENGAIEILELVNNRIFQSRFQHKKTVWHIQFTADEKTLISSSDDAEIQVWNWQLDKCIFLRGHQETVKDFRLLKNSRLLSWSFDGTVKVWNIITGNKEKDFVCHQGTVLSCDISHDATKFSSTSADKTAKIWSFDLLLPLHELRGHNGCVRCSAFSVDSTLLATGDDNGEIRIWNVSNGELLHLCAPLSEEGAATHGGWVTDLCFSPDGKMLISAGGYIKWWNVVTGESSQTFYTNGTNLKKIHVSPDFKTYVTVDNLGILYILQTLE

[14] = cytotoxicity toward NIH3T3 fibroblasts, dose response, counter-screen, cell-based, ATP luminescence, mouse fibroblasts (AID 2010); format: functional;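 also: cells exposed to compound for about 90 hours before reading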
[15] = non-specific cell cytotoxicity, dose response, cytotoxicity control for PAX8 inhibitor project, plate reader, dry powder samples (AID 743021); format: functional, cell-based
[16] = target: Paired box protein Pax-8 (Homo sapiens, UniProt Q06710); assay: inhibitors of PAX8-driven TPO luciferase reporter, dose response, RMG-I cells, cherry-pick (AID 687027); format: functional, cell-based;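 also: luciferase reporter driven by Pax8 target thyroperoxidase promoter measured by SteadyGlo luminescence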
[17] = inhibitors of clade B AD8 Env fusion, dose response, cell-based, cherry-pick (AID 652062); format: functional;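 also: luciferase signal from cell-cell fusion driven by HIV-1 clade B AD8 Env; potency is for inhibitors of fusion seen as a drop in luminescence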
[18] = inhibitors of HIV Env-driven cell fusion, dose response, cherry-pick (AID 652057); format: functional, cell-based
[19] = ZM109 Env clade C HIV-1 fusion inhibitors, dose response, HeLa effector, CEM target cells, luciferase, cherry-pick (AID 652058); format: functional, cell-based
[20] = cytotoxicity in OVCAR8 ovarian cancer cells, dose response, PAX8 project, cell-based, plate reader, dry powder samples (AID 743197); format: functional; settings: OVCAR-8
[21] = IGROV1 ovarian cancer cell cytotoxicity, dose response, PAX8 inhibitor project, plate reader, dry powder samples (AID 743043); format: functional, cell-based; settings: IGROV-1

Sequence of Disintegrin and metalloproteinase domain-containing protein 17 (P78536 whole entry, the tested form may be a part): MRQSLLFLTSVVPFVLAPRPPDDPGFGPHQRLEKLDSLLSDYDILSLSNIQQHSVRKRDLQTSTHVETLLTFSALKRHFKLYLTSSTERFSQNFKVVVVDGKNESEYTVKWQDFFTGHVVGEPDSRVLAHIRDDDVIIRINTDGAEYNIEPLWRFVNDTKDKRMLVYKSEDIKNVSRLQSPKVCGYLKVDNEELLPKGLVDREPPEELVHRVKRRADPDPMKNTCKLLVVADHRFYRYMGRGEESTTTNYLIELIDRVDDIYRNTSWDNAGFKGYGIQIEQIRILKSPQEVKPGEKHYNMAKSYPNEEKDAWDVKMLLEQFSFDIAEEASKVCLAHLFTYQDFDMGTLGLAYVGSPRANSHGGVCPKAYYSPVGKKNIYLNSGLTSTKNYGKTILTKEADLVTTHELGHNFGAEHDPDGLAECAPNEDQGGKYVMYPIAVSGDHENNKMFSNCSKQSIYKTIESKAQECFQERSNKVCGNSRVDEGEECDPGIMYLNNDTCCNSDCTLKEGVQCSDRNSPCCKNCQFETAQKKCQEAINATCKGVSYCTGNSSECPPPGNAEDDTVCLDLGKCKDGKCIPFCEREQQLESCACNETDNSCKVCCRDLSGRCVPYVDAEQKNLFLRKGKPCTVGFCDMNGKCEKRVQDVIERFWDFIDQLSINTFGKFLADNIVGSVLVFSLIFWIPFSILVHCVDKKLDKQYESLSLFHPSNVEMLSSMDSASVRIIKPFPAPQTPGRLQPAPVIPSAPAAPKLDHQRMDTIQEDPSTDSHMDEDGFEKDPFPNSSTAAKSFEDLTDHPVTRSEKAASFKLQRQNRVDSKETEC
Sequence of Beta-galactosidase (Q8VNN2 whole entry): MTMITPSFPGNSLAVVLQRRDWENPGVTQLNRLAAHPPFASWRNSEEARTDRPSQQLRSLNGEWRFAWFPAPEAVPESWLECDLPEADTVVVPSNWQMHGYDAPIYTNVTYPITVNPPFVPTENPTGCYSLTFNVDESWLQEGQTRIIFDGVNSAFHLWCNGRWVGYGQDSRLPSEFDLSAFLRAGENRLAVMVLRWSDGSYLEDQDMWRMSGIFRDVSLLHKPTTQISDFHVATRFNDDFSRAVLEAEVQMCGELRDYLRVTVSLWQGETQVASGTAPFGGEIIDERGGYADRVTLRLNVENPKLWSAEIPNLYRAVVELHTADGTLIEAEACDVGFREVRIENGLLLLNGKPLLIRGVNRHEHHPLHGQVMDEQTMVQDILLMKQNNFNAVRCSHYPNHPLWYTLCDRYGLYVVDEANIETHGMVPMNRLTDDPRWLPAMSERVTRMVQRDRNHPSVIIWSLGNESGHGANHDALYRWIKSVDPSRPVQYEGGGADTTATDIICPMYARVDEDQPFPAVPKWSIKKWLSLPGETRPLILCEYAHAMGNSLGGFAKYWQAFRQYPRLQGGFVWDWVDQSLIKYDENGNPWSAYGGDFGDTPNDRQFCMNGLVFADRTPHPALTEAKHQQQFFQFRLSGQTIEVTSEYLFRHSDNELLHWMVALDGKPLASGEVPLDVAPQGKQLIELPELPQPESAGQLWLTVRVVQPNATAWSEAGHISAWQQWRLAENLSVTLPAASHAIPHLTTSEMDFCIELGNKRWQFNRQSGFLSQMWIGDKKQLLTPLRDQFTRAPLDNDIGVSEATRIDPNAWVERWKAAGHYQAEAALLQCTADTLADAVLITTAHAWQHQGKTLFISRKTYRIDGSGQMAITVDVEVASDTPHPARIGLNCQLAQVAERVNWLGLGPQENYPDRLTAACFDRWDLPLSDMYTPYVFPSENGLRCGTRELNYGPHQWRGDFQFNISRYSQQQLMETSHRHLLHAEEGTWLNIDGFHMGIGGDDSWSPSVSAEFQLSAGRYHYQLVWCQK
Sequence of Paired box protein Pax-8 (Q06710 whole entry, the tested form may be a part): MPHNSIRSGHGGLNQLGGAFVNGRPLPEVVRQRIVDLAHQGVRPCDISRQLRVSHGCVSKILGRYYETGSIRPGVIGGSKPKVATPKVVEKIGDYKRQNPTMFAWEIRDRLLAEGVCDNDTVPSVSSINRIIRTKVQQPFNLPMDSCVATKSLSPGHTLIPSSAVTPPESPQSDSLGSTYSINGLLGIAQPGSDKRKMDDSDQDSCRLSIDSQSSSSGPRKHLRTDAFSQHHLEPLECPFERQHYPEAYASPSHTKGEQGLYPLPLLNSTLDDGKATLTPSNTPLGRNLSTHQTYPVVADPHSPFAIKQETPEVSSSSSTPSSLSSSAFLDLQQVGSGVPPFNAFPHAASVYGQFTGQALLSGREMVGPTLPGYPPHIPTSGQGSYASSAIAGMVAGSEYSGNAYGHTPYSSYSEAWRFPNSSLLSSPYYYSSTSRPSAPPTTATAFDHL
Sequence of Cytochrome P450 2C9 (P11712 whole entry): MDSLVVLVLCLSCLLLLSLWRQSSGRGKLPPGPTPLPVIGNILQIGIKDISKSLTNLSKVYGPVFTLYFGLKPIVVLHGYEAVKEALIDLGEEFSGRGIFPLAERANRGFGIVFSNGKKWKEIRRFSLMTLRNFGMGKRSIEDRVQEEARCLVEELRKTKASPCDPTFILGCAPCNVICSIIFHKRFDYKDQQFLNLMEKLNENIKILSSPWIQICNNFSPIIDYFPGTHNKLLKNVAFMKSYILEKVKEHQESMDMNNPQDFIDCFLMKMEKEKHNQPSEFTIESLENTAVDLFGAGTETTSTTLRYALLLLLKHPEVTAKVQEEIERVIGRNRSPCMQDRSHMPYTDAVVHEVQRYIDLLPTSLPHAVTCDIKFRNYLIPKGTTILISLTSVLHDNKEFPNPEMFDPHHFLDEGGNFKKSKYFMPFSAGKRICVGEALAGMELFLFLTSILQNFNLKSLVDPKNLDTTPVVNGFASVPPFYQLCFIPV
Sequence of Cytochrome P450 2D6 (P10635 whole entry): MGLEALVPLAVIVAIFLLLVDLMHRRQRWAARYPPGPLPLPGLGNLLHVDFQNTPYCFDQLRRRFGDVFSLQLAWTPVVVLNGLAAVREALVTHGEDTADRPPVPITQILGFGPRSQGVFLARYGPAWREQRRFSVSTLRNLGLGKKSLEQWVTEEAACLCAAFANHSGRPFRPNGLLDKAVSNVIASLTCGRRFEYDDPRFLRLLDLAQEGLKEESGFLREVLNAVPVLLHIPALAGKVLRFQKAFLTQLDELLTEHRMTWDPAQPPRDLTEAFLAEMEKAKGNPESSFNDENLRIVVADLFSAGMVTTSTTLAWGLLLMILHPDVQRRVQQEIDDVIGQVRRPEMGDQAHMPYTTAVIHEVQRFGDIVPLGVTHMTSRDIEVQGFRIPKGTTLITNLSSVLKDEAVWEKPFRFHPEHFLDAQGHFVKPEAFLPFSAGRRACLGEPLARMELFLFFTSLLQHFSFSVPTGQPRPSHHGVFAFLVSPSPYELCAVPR

Cc1ccc(N=C2C(=O)Nc3c(C)cccc32)cc1
IC50 [1]: > 40 µM (not active) | EC50 [2]: > 40 µM (inactive)

CCOc1ccc(C(c2c(C)n[nH]c2O)c2c(C)n[nH]c2O)cc1OC
IC50 [3]: 32.9 µM (active) | AC50 [4]: 0.386 µM (active) | EC50 [5]: 0.309 µM (active) | IC50 [6]: 43.6 µM (active)

O=C(CCCC(=O)OCC(=O)c1ccc(Cl)cc1Cl)Nc1cc(C(F)(F)F)ccc1Cl
IC50 [1]: > 40 µM (not active) | EC50 [2]: > 40 µM (inactive) | AC50 [7]: inconclusive | AC50 [8]: 12.6 µM (inconclusive)

O=C(COC(=O)/C=C/c1ccc(OC(F)F)cc1)Nc1ccc(S(=O)(=O)N2CCCC2)cc1
IC50 [9]: > 69.5 µM (inactive) | IC50 [10]: > 69.5 µM (inactive)

CC(C)(C)c1ccc(C(=O)NNc2cc(N3CCCCC3)nc(N3CCCCC3)n2)cc1
EC50 [11]: 1.7 µM (active) | IC50 [3]: 0.796 µM (active) | CC50 [12]: > 40 µM (active) | IC50 [13]: 3.59 µM (active) | EC50 [14]: > 60 µM (not active) | IC50 [6]: 0.384 µM (active)

O=C(CN1C(=O)C2C3CCC(C3)C2C1=O)OCC(=O)c1cccc([N+](=O)[O-])c1 (stereo not given)
IC50 [1]: 26.3 µM (not active) | EC50 [2]: > 40 µM (inactive)

Cc1cnc(C(=O)OC(C)C(=O)Nc2ccc3c(c2)OCCO3)cn1 (stereo not given)
IC50 [9]: > 69.5 µM (inactive) | IC50 [10]: > 69.5 µM (inactive)

COc1ccc(NC(=O)Nc2ccc3c(c2)C(=O)N([C@@H](C)CO)C[C@@H](C)[C@H](CN(C)Cc2ccc(C(F)(F)F)cc2)O3)cc1
AC50 [15]: 41.7 µM (active) | AC50 [16]: 22 µM (active)

COc1cccc(S(=O)(=O)N(C)C[C@@H]2Oc3cc(C#CCC(C)C)ccc3S(=O)(=O)N([C@H](C)CO)C[C@H]2C)c1
AC50 [17]: 8.75 µM (active) | AC50 [18]: 36.2 µM (active) | AC50 [19]: 36.9 µM (active)

O=C(CCN1CCCCC1)N[C@H]1CC[C@H](CCn2cc(-c3ccccc3)nn2)O[C@@H]1CO
AC50 [19]: 40.8 µM (active)

C[C@@H]1CCCCO[C@@H](CN(C)Cc2ccc(C(F)(F)F)cc2)[C@H](C)CN([C@H](C)CO)C(=O)c2cc(NS(=O)(=O)c3ccccc3)ccc2O1
AC50 [20]: 34 µM (active) | AC50 [16]: 6.14 µM (active) | AC50 [21]: 41.9 µM (active)

COc1cccc(CC(=O)N(Cc2ccccc2)c2ccccc2C(=O)Nc2cc(OC)ccc2OC)c1
IC50 [9]: > 69.5 µM (inactive) | IC50 [10]: > 69.5 µM (inactive)

COC(=O)[C@H](CC(C)C)N1Cc2nnn(Cc3ccc(C)cc3)c2-c2cc(F)ccc2S1(=O)=O
IC50 [9]: > 69.5 µM (inactive) | IC50 [10]: > 69.5 µM (inactive)
